Experimental data from patent US20170253581A1, “SUBSTITUTED HETEROCYCLES AS c-MYC TARGETING AGENTS” (Northwestern University, priority 2016, published 2017).
pIC50: −log10 of the molar value.

Experiments:
[1] = system: DNA damage (rH2AX staining); assay: rH2AX staining assay for DNA damage; format: cell-based
Description: Min9 (NUCC-0176234) was also tested for its ability to cause DNA damage in an rH2AX staining assay. We would not expect cMyc-targeting agents to produce significant DNA damage. Compounds that act directly against DNA such as doxorubicin do however. […] (See FIG. 6).

Myc/Max binding to DNA = Myc/Max binding to DNA (Homo sapiens, UniProt P01106); assay: Electrophoretic mobility shift assay (EMSA) of Myc/Max binding to DNA; format: biochemical; conditions: for remaining activity at 100 µM / remaining activity at 200 µM / remaining activity at 50 µM: EMSA; for remaining activity at 100 µM: 100 uM test compound, read-out: Bound DNA (%) (100uM); for remaining activity at 200 µM: 200 uM test compound, read-out: Bound DNA (%) (200uM); for remaining activity at 50 µM: 50 uM test compound, read-out: Bound DNA (%) (50uM)
Summary of the method: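 Electrophoretic mobility shift assay of Myc/Max binding to DNA. Compounds tested at 200 μM, 100 μM and 50 μM.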

[2] = system: cMyc wild-type (WT) and a cMyc KO line; assay: Cell viability assay against cMyc WT and cMyc KO line; format: cell-based; conditions: FIG. 4
Description: Min9 (NUCC-0176234) was also tested in a cell viability assay against a cMyc wild-type (WT) and a cMyc KO line.

[3] = In vitro metabolism with mouse liver microsomes and mouse S9 fraction; format: in vitro ADME; conditions: compared with NUCC-176248
Description: In vitro metabolism of NUCC-176242 and NUCC-176248 were tested using mouse liver microsomes and a mouse S9 fraction.

[4] = Pharmacokinetics in mice after intravenous dosing; format: in vivo; conditions: 5 mg/kg intravenously
Description: The pharmacokinetics of NUCC-176242 and NUCC-176248 were studied in mice by administering a dose of 5 mg/kg intravenously and measuring the plasma concentration versus time.

[5] = system: wild type and Myc knockout rat fibroblasts; assay: Growth inhibition on wild type and Myc knockout rat fibroblasts; format: cell-based; conditions: FIG. 3; for selectivity of growth inhibition for Myc WT over Myc KO cells: wild type vs Myc knockout rat fibroblasts
Excerpt: We tested the top 13 active compounds in the first screen assay. […] More than half of the tested compounds show better growth inhibitory effect on Myc WT compared to Myc KO cells.

Myc/Max binding to DNA, sequence (P01106 whole entry): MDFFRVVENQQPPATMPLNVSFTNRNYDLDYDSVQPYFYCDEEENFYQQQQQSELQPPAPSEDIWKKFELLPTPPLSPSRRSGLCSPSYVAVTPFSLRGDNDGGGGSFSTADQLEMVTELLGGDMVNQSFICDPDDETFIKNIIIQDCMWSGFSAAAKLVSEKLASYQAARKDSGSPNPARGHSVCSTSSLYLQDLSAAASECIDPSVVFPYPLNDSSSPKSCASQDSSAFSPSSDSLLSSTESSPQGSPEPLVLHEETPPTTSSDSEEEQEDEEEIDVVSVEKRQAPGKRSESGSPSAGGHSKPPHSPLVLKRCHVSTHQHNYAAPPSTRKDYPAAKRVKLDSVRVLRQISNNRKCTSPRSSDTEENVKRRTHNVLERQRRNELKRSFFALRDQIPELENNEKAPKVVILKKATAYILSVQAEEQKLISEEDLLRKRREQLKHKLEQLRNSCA

| SMILES | remaining activity at 100 µM (Myc/Max binding to DNA) [%] | other results |
| --- | --- | --- |
| CCc1ccc(Oc2c[nH]nc2-c2ccc(OCc3cnn(-c4ccccc4)c3)cc2O)cc1 [NUCC-0176234] | 79 | DNA damage [1]: essentially no DNA damage; pIC50 (Myc/Max binding to DNA): 3.91; remaining activity at 200 µM (Myc/Max binding to DNA): 10%; reduction of cell viability, WT vs KO line [2]: reduces cell viability much more in the WT line than the KO cells |
| CCc1ccc(Oc2c(-c3ccc(OCc4ccc(Cl)cc4)cc3O)n[nH]c2C(F)(F)F)cc1 [NUCC-0176242] | 36 | metabolism by mouse S9 fraction [3]: significantly metabolism by the mouse S9 fraction versus NUCC-176248; pIC50 (Myc/Max binding to DNA): 4.05; remaining activity at 200 µM (Myc/Max binding to DNA): 2%; in vivo metabolism (plasma concentration versus time) [4]: correlated well with the observed in vitro metabolism |
| CCc1ccc(Oc2c(-c3ccc(OCc4ccc(Cl)cc4)cc3O)nn(C)c2C(F)(F)F)cc1 [NUCC-0176248] | 49 | pIC50 (Myc/Max binding to DNA): 4.02; remaining activity at 200 µM (Myc/Max binding to DNA): 6%; in vivo metabolism (plasma concentration versus time) [4]: correlated well with the observed in vitro metabolism; effective concentration (dose with the greatest selectivity, growth inhibition Myc WT vs KO) [5]: 6 µM; selectivity of growth inhibition for Myc WT over Myc KO cells [5]: high specificity |
| CCc1ccc(Oc2c(-c3ccc(OCc4ccncc4)cc3O)n[nH]c2C(F)(F)F)cc1 [NUCC-0176250] | – | remaining activity at 200 µM (Myc/Max binding to DNA): 57%; effective concentration (dose with the greatest selectivity, growth inhibition Myc WT vs KO) [5]: 50 µM; selectivity of growth inhibition for Myc WT over Myc KO cells [5]: great selectivity |
| Cn1nc(-c2ccc(O)cc2O)c(-c2cc(C(F)(F)F)cc(C(F)(F)F)c2)c1C(F)(F)F [compound 0200724] | 105 | – |
| Oc1cc(OCc2ccc(Cl)cc2)ccc1-c1n[nH]c(C(F)(F)F)c1-c1ccc(C(F)(F)F)cc1 [compound 0200725] | 98 | – |
| Cn1nc(C(F)(F)F)c(-c2ccc(C(F)(F)F)cc2)c1-c1ccc(OCc2ccc(Cl)cc2)cc1O [compound 0200726] | 92 | – |
| Cn1nc(-c2ccc(OCc3ccc(Cl)cc3)cc2O)c(-c2ccc(C(F)(F)F)cc2)c1C(F)(F)F [compound 0200727] | 99 | – |
| Oc1cc(OCc2ccc(Cl)cc2)ccc1-c1n[nH]c(C(F)(F)F)c1-c1ccc(C(F)(F)F)c(Cl)c1 [compound 0200728] | 89 | – |
| Cn1nc(-c2ccc(OCc3ccc(Cl)cc3)cc2O)c(-c2ccc(C(F)(F)F)c(Cl)c2)c1C(F)(F)F [compound 0200729] | 43 | remaining activity at 50 µM (Myc/Max binding to DNA): 82% |
| Oc1cc(OCc2ccc(Cl)cc2)ccc1-c1n[nH]c(C(F)(F)F)c1-c1cccc(C(F)(F)F)c1 [compound 0200730] | 77 | remaining activity at 50 µM (Myc/Max binding to DNA): 93% |
| Cn1nc(-c2ccc(OCc3ccc(Cl)cc3)cc2O)c(-c2cccc(C(F)(F)F)c2)c1C(F)(F)F [compound 0200731] | 62 | remaining activity at 50 µM (Myc/Max binding to DNA): 77% |
| Oc1cc(OCc2ccc(Cl)cc2)ccc1-c1n[nH]c(C(F)(F)F)c1-c1ccc(Cl)c(C(F)(F)F)c1 [compound 0200732] | 46 | remaining activity at 50 µM (Myc/Max binding to DNA): 89% |
| Cn1nc(-c2ccc(OCc3ccc(Cl)cc3)cc2O)c(-c2ccc(Cl)c(C(F)(F)F)c2)c1C(F)(F)F [compound 0200733] | 97 | – |
| Oc1cc(OCc2ccc(Cl)cc2)ccc1-c1n[nH]c(C(F)(F)F)c1-c1ccc(F)c(C(F)(F)F)c1 [compound 0200734] | 91 | – |
| Cn1nc(C(F)(F)F)c(-c2ccc(F)c(C(F)(F)F)c2)c1-c1ccc(OCc2ccc(Cl)cc2)cc1O [compound 0200735] | 60 | remaining activity at 50 µM (Myc/Max binding to DNA): 84% |
| Cn1nc(-c2ccc(OCc3ccc(Cl)cc3)cc2O)c(-c2ccc(F)c(C(F)(F)F)c2)c1C(F)(F)F [compound 0200736] | 86 | – |
| Oc1cc(OCc2ccc(Cl)cc2)ccc1-c1n[nH]c(C(F)(F)F)c1-c1ccc(C(F)(F)F)cc1Cl [compound 0200737] | 76 | – |
| Cn1nc(C(F)(F)F)c(-c2ccc(C(F)(F)F)cc2Cl)c1-c1ccc(OCc2ccc(Cl)cc2)cc1O [compound 0200738] | 18 | remaining activity at 50 µM (Myc/Max binding to DNA): 91% |
| CCc1c(C(F)(F)F)n[nH]c1-c1ccc(OCc2ccc(Cl)cc2)cc1O [compound 0200739] | 78 | – |
| CCCc1c(C(F)(F)F)n[nH]c1-c1ccc(OCc2ccc(Cl)cc2)cc1O [compound 0200740] | 75 | remaining activity at 50 µM (Myc/Max binding to DNA): 93% |
| Cn1cc(C(F)(F)F)c(-c2ccc(OCc3ccc(Cl)cc3)cn2)n1 [compound 0200741] | 103 | – |
| Cn1cc(C(F)(F)F)c(-c2ccc(NCc3ccc(Cl)cc3)cn2)n1 [compound 0200742] | 99 | – |
| Cn1cc(C(F)(F)F)c(-c2ccc(OCc3ccc(Cl)cc3)cc2F)n1 [compound 0200743] | 101 | – |
| Cn1nc(C(F)(F)F)cc1-c1ccc(OCc2ccc(Cl)cc2)cc1Cl [compound 0200744] | 62 | – |
| Cn1nc(C(F)(F)F)cc1-c1ccc(OCc2ccc(Cl)cc2)cc1N [compound 0200745] | 105 | – |
| Cn1cc(-c2ccc(OCc3ccc(Cl)cc3)cc2N)c(C(F)(F)F)n1 [compound 0200746] | 101 | – |
| Cn1cc(C(F)(F)F)c(-c2cnc(OCc3ccc(Cl)cc3)cn2)n1 [compound 0200747] | 105 | – |
